The values that follow come from US7772252B2, “Heterocyclic substituted carbonyl derivatives and their use as dopamine D3 receptor ligands” (Aventis Pharmaceuticals Inc., priority 2001, dated 2010).

T1 sequence (P35462 whole entry): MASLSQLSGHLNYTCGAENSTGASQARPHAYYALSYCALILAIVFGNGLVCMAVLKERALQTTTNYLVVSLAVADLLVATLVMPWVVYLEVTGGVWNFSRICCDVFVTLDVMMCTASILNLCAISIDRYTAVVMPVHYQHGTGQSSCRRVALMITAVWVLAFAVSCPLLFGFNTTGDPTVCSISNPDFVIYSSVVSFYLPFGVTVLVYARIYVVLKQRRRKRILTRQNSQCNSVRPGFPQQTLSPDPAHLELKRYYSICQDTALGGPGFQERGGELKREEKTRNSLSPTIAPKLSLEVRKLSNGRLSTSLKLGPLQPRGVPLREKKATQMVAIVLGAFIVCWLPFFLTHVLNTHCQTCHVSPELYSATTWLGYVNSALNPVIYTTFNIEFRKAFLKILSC

One assay concerns the target T1, cloned human dopamine D3 receptors (Homo sapiens, UniProt P35462).
T1 construct: expressed in transfected cells; membrane homogenate
In words: [N-Methyl-3H]Spiroperidol binding to cloned human dopamine D3 receptors. The following applies: Table 2; D3 receptor binding; read-out: d3Ki. Summed up:
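Radioligand displacement with [N-methyl-3H]spiroperidol was run on membranes from a high-expressing CHO clone carrying human D3. Membranes were prepared in 10% DMSO and stored at −80° C.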
With `O=C(CCCN1CCN(c2csc3cc(C(F)(F)F)ccc23)CC1)N1CCC(O)CC1` [compound 826812], the Ki came to 7.29 nM.
With `CC1CCCCN1C(=O)CCCN1CCN(c2csc3cc(C(F)(F)F)ccc23)CC1` (stereo not drawn) [compound 826813], the Ki was 5.16 nM.
The same measure, in the same setting: with `CC1CCN(C(=O)CCCN2CCN(c3csc4cc(C(F)(F)F)ccc34)CC2)CC1` [compound 826814] the figure was 10.3 nM.
With `CC1CCCN(C(=O)CCCN2CCN(c3csc4cc(C(F)(F)F)ccc34)CC2)C1` (stereo not drawn) [compound 826815], the Ki amounted to 31.7 nM.

Staying with this assay, now noted: read-out: d3Ki.
Turning to `O=C(CCCN1CCN(c2csc3cc(C(F)(F)F)ccc23)CC1)N1CCC(N2CCCC2)CC1` [compound 826816], the Ki stood at 26.3 nM.
The same measure, in the same setting: with `O=C(CCCN1CCN(c2csc3cc(F)ccc23)CC1)N1CCC(O)CC1` [compound 826852] the figure was 3.54 nM.
Regarding `O=C(CCCN1CCN(c2csc3cc(C(F)(F)F)ccc23)CC1)NC1CCCCC1` [compound 826821], the Ki was found to be 70.1 nM.
The same measure, in the same setting: to `CC1CCCC(NC(=O)CCCN2CCN(c3csc4cc(F)ccc34)CC2)C1` (stereo not drawn) [compound 826847] belongs 1.01 nM.
Consider `CC1CCCC(NC(=O)CCCN2CCN(c3csc4cc(C(F)(F)F)ccc34)CC2)C1` (racemic) [compound 826807], for which the Ki turned out to be 43 nM.
In the case of `CCN(C(=O)CCCN1CCN(c2csc3cc(F)ccc23)CC1)C1CCCCC1` [compound 826849], the Ki was found to be 54.2 nM.
As for `CC1CCCN1C(=O)CCCN1CCN(c2csc3cc(C(F)(F)F)ccc23)CC1` (stereo not drawn) [compound 826822], the Ki stood at 2.79 nM.
Still for that read-out and setting: to `O=C(CCCN1CCN(c2csc3cc(C(F)(F)F)ccc23)CC1)N(CCO)C1CCCCC1` [compound 826810] belongs 86.7 nM; to `O=C(CCCN1CCN(c2csc3cc(C(F)(F)F)ccc23)CC1)NC1CCCC1` [compound 826820], 52.8 nM; to `CCOC(=O)[C@H]1CC[C@H](NC(=O)CCCN2CCN(c3csc4cc(F)ccc34)CC2)CC1` [compound 826845], 4.42 nM.
On the same count and under the same terms, to `O=C(CCCN1CCN(c2csc3cc(C(F)(F)F)ccc23)CC1)N1CCCC1` [compound 826819] belongs 11.6 nM; to `CCOC(=O)C1CCN(C(=O)CCCN2CCN(c3csc4cc(F)ccc34)CC2)CC1` [compound 826851], 2.77 nM.
Still for that read-out and setting: with `CC1CC(C)CN(C(=O)CCCN2CCN(c3csc4cc(C(F)(F)F)ccc34)CC2)C1` (stereo not drawn) [compound 826818] the figure was 29.3 nM; with `O=C(CCCN1CCN(c2csc3cc(F)ccc23)CC1)NC1CCCCC1` [compound 826861], 2.89 nM.
In the case of `CCOC(=O)C1CCN(C(=O)CCCN2CCN(c3csc4cc(C(F)(F)F)ccc34)CC2)CC1` [compound 826811], the Ki amounted to 40.4 nM.
The same measure, in the same setting: to `C[C@H]1CC[C@H](NC(=O)CCCN2CCN(c3csc4cc(F)ccc34)CC2)CC1` [compound 826844] belongs 0.591 nM; to `O=C(CCCN1CCN(c2csc3cc(F)ccc23)CC1)NC1CCCC1` (racemic) [compound 826860], 3.48 nM; to `CC1CCN(C(=O)CCCN2CCN(c3csc4cc(F)ccc34)CC2)CC1` [compound 826854], 0.116 nM.
Regarding `CC[C@H]1CC[C@H](NC(=O)CCCN2CCN(c3csc4cc(F)ccc34)CC2)CC1` [compound 826846], the Ki was 17.6 nM.
The same measure, in the same setting: to `CC1CC(C)CN(C(=O)CCCN2CCN(c3csc4cc(F)ccc34)CC2)C1` (stereo not drawn) [compound 826858] belongs 3.71 nM; to `O=C(CCCN1CCN(c2csc3cc(F)ccc23)CC1)N(CCO)C1CCCCC1` [compound 826850], 18.8 nM; to `CC1CCCCN1C(=O)CCCN1CCN(c2csc3cc(F)ccc23)CC1` (stereo not drawn) [compound 826853], 0.128 nM.
Turning to `O=C(CCCN1CCN(c2csc3cc(F)ccc23)CC1)N1CCC(N2CCCC2)CC1` [compound 826856], the Ki turned out to be 1.8 nM.
The same measure, in the same setting: to `CN(C)C1CCN(C(=O)CCCN2CCN(c3csc4cc(C(F)(F)F)ccc34)CC2)C1` (stereo not drawn) [compound 826823] belongs 19 nM; to `O=C(CCCN1CCN(c2csc3cc(F)ccc23)CC1)N1CCCC1` [compound 826859], 3.53 nM.
On the same count and under the same terms, to `CN(C(=O)CCCN1CCN(c2csc3cc(C(F)(F)F)ccc23)CC1)C1CCCCC1` [compound 826808] belongs 17.4 nM.
The same measure, in the same setting: with `CN(C(=O)CCCN1CCN(c2csc3cc(F)ccc23)CC1)C1CCCCC1` [compound 826848] the figure was 4.35 nM; with `CC1CCCN1C(=O)CCCN1CCN(c2csc3cc(F)ccc23)CC1` (stereo not drawn) [compound 826862], 0.951 nM.
As for `CC1CCCN(C(=O)CCCN2CCN(c3csc4cc(F)ccc34)CC2)C1` (stereo not drawn) [compound 826855], the Ki stood at 0.58 nM.
